Results reported in publication PMC9997069 (Molecular Pharmaceutics, 2023).
Where “and” joins values, the source holds several entries; their conditions need not be identical. Equal entries are not always repeated. Entries after “also recorded” stand apart in the source; their conditions may differ. Where two headings read alike, the source gives them in different places.

Legend:
[1] = cited from earlier work
[2] = biological target: T1, HSA (Homo sapiens, UniProt P02768); details: cited from earlier work
T1 construct: purchased Sigma-Aldrich
T1 sequence (P02768 25-609): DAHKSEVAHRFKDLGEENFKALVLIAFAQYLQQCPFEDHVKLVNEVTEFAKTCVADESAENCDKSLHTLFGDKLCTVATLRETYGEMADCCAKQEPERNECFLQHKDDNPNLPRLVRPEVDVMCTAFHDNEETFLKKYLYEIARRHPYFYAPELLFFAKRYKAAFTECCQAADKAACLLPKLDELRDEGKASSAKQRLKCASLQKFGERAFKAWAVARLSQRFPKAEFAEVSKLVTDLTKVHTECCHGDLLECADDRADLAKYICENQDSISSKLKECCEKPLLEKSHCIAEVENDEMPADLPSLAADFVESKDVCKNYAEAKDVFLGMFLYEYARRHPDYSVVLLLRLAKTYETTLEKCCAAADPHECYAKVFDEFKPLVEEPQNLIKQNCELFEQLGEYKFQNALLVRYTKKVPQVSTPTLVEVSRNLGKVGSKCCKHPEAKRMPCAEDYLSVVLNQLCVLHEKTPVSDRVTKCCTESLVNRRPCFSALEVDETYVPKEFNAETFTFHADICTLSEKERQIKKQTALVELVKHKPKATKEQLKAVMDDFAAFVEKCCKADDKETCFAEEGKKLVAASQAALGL

[3] = tested on: BSA; details: cited from earlier work
[4] = biological target: T2, human serum albumin (HSA) (Homo sapiens, UniProt P02768); test: Binding to HSA by Trp214 fluorescence quenching titration; details: for n^c ± 2σ number of binding sites / Kd / n^u ± 2σ: HSA; for n^c ± 2σ number of binding sites: inner filter corrected
T2 construct: purchased Sigma-Aldrich
T2 sequence (P02768 25-609): as above
Protocol: The emission fluorescence intensity was collected at 320 nm to avoid the fluorescence emission of the drugs. […] The excitation and emission slits were fixed at 1 and 5 nm, respectively. The step and dwell times were 1 nm and 0.1 s, respectively.
Enthalpy (ΔH) and entropy (ΔS) changes were obtained from the van′t Hoff equation [drawing 6] 6 and free energy (ΔG) changes were calculated from [drawing 7] 7 The van’t Hoff plots are shown in Figure 9, and the corresponding thermodynamic parameters are collected in Table 2. […] Proton-releasing processes in protein–ligand interactions generally result in a positive enthalpy.[64]

[5] = biological target: T1, HSA; test: Competitive binding experiments with warfarin (site 1) and ibuprofen (site 2)
Protocol: The HSA binding experiments were performed at 310 K using [HSA]:[warfarin] and [HSA]:[ibuprofen] ratios of 1. […] Synchronous fluorescence spectroscopy experiments were performed to analyze the changes in the microenvironment polarity around fluorescent residues of HSA. When the value of the intervals (Δλ) between the excitation and emission wavelengths is set at 15 nm, synchronous fluorescence spectra offer characteristic information on tyrosine residues.[61]−[63]

[6] = Protonation equilibria by UV-vis pH titration with DFT assignment; type: physicochemical; details: for pKa: aqueous solution
[7] = tested on: PLK2 and PLK3; design: method as in PMID 21459796, PMID 21809214, PMID 19690138; details: cited from earlier work
[8] = tested on: panel of 48 other kinases; design: method as in PMID 21459796, PMID 21809214, PMID 19690138; details: cited from earlier work
[9] = tested on: cancer cell lines; design: method as in PMID 19690138; details: tested cancer cell lines; cited from earlier work
[10] = tested on: multiple leukemia cell lines; design: method as in PMID 26478211; details: cited from earlier work
[11] = tested on: xenograft mouse models; design: method as in PMID 26478211; details: cited from earlier work
[12] = noncompartmental analysis, 1 hour infusion, 25 to 200 mg on day 1 and day 8 of a 21 day course
[13] = HSA/drug complex, van't Hoff plot 298-310 K
[14] = equilibrium between spectroscopic species 1 (charge 0/+1) and 2 (charge +2)

Structure (SMILES): CC[C@@H]1C(=O)N(C)c2cnc(Nc3ccc(C(=O)NC4CCN(C)CC4)cc3OC)nc2N1C1CCCC1 [BI-2536]
- terminal half-life (up to) ([1]; 1 hour intravenous infusion, 50, 60 and 70 mg on days 1 and 3 of a 21 day course): 20 to 30 h
- volume of distribution [1]: 751 to 2200 L
- half-life [1, 12]: around 25 hours
- half-life, max [1, 12]: 55.1 h
- half-life, min [1, 12]: 18.6 h
- terminal half-life ([1]; single intravenous infusion, 200 mg over 1 h): 15.4 h
- ΔG^0 ([2]; HSA/drug complex, 298 K): –33.6 kJ mol^–1
- ΔG^0 ([2]; HSA/drug complex, 303 K): –36.0 kJ mol^–1
- ΔG^0 ([2]; HSA/drug complex, 310 K): –39.2 kJ mol^–1
- ΔH^0 ([2]; HSA/drug complex): 103.8 kJ mol^–1
- ΔS^0 ([2]; HSA/drug complex): 461.3 J K^–1 mol^–1
- Ka^c binding constant to HSA [2]: 3.78 × 10^6 M^–1
- Ka^u binding constant to HSA [2]: 11.4 × 10^7 M^–1
- n^c ± 2σ number of binding sites [2]: 1.30 ± 0.09 and 1.22 ± 0.16 and 1.35 ± 0.16

Structure (SMILES): C[C@@H](Oc1cc(-c2cnn(C3CCNCC3)c2)cnc1N)c1c(Cl)ccc(F)c1Cl [Crizotinib]
- Ka^c binding constant ([3]; 309 K, listed as crizotinib): 3.4 × 10^4 M^–1
- Ka^c binding constant ([3]; 309 K): 3.43 × 10^4 M^–1

Structure (SMILES): C#Cc1cccc(Nc2ncnc3cc(OCCOC)c(OCCOC)cc23)c1 [Erlotinib]
- Ka^c binding constant ([3]; 307 K): 3.44 × 10^2 M^–1

Structure (SMILES): C[C@@H](Oc1cc(-n2cnc3ccc(CN4CCN(C)CC4)cc32)sc1C(N)=O)c1ccccc1C(F)(F)F [GSK461364]
- binding constant to HSA, times lower than for RO3280 ([4]; 310 K): 25 times
- n^c ± 2σ number of binding sites ([4]; 298 K): 1.19 ± 0.06
- Kd ([4]; 298 K, pH 7.4, inner filter corrected, read-out: Ka^c binding constant (converted)): 4.81 µM
- n^u ± 2σ ([4]; 298 K, without inner filter corrections): 1.29 ± 0.10
- Kd ([4]; 298 K, without inner filter corrections, read-out: log Ka^u ± 2σ (converted)): 0.871 µM
- n^c ± 2σ number of binding sites ([4]; 303 K): 1.15 ± 0.03
- Kd ([4]; 303 K, pH 7.4, inner filter corrected, read-out: Ka^c binding constant (converted)): 8.26 µM
- n^u ± 2σ ([4]; 303 K, without inner filter corrections): 1.28 ± 0.05
- Kd ([4]; 303 K, without inner filter corrections, read-out: log Ka^u ± 2σ (converted)): 1.07 µM
- n^c ± 2σ number of binding sites ([4]; 310 K): 1.11 ± 0.05
- Kd ([4]; 310 K, pH 7.4, inner filter corrected, read-out: Ka^c binding constant (converted)): 11.4 µM
- n^u ± 2σ ([4]; 310 K, without inner filter corrections): 1.23 ± 0.06
- Kd ([4]; 310 K, without inner filter corrections, read-out: Ka^u binding constant to HSA (converted)): 1.79 µM
- ΔG^0 ([4]; HSA/drug complex, 298 K): –30.22 kJ mol^–1
- ΔG^0 ([4]; HSA/drug complex, 303 K): –29.80 kJ mol^–1
- ΔG^0 ([4]; HSA/drug complex, 310 K): –29.20 kJ mol^–1
- ΔH^0 [4, 13]: –55.61 kJ mol^–1
- ΔS^0 [4, 13]: –85.20 J K^–1 mol^–1
- Kd ([5]; 310 K, [HSA]:[warfarin] ratio of 1, 5 μM, read-out: binding constant to HSA in the presence of warfarin (converted)): 1040 µM
- preferential binding site into HSA ([5]; competitive experiments with warfarin and ibuprofen): site 1; also recorded: site I
- pKa [6, 14]: 1.4
- selectivity for PLK1 than for PLK2 and PLK3 [7]: at least 390 fold
- selectivity for PLK1 than for a panel of 48 other kinases [8]: 1000 fold
- cell growth inhibition [9]: causes cell growth inhibition in a high percentage of tested cancer cell lines

Structure (SMILES): C=CC(=O)N1CCC[C@@H](n2nc(-c3ccc(Oc4ccccc4)cc3)c3c(N)ncnc32)C1 [Ibrutinib]
- Ka^c binding constant ([2]; HSA, 310 K): 7.2 × 10^3 M^–1
- ΔG^0 ([2]; HSA, 310 K): –25.09 kJ mol^–1
- ΔH^0 ([2]; HSA): –16.91 kJ mol^–1
- ΔS^0 ([2]; HSA): 26.44 J K^–1 mol^–1

Structure (SMILES): Cc1ccc(F)c(NC(=O)Nc2ccc(-c3cccc4[nH]nc(N)c34)cc2)c1 [Linifanib]
- Ka^c binding constant ([3]; 308 K): 4.3 × 10^3 M^–1

Structure (SMILES): Cc1cc(Nc2cc(N3CCN(C)CC3)nc(Sc3ccc(NC(=O)C4CC4)cc3)n2)[nH]n1 [MK-0457]
- Ka^c binding constant ([2]; HSA, 310 K): 1.05 × 10^4 M^–1
- ΔG^0 ([2]; HSA, 310 K): –23.02 kJ mol^–1
- ΔH^0 ([2]; HSA): –130.63 kJ mol^–1
- ΔS^0 ([2]; HSA): –343.89 J K^–1 mol^–1

Structure (SMILES): Cc1cc(C(=O)Nc2nc3cccc(Cl)c3n2[C@@H]2CCCCN(C(=O)/C=C/CN(C)C)C2)ccn1 [Nazartinib (EGF816), Nazartinib]
- Ka^c binding constant ([2]; HSA, 310 K): 2.67 × 10^4 M^–1
- ΔG^0 ([2]; HSA, 310 K): –26.27 kJ mol^–1
- ΔH^0 ([2]; HSA): –3.22 kJ mol^–1
- ΔS^0 ([2]; HSA): 74.36 J K^–1 mol^–1

Structure (SMILES): CCOc1cc2ncc(C#N)c(Nc3ccc(OCc4ccccn4)c(Cl)c3)c2cc1NC(=O)/C=C/CN(C)C [Neratinib]
- Ka^c binding constant ([2]; HSA, 310 K): 2.25 × 10^5 M^–1

Structure (SMILES): COc1cc(C(=O)NC2CCN(C)CC2)ccc1Nc1ncc2c(n1)N(C1CCCC1)CC(F)(F)C(=O)N2C [RO3280]
- pKa [6, 14]: 12.6
- pKa ([6]; equilibrium to species with charge +3, acidic pH): 3.8
- charge state at the physiological pH ([6]; pH 7.4, aqueous solution): +2
- in vitro cellular potency [10]: high in vitro cellular potency
- antitumor activity [11]: significant level of antitumor activity

Structure (SMILES): CNC(=O)c1cc(Oc2ccc(NC(=O)Nc3ccc(Cl)c(C(F)(F)F)c3)cc2)ccn1 [Sorafenib]
- Ka^c binding constant ([2]; HSA, 305 K): 2.64 × 10^4 M^–1
- ΔG^0 ([2]; HSA, 305 K): –25.8 kJ mol^–1
- ΔH^0 ([2]; HSA): –28.2 kJ mol^–1
- ΔS^0 ([2]; HSA): –7.87 J K^–1 mol^–1

Structure (SMILES): COc1cc2c(Nc3ccc(Br)cc3F)ncnc2cc1OCC1CCN(C)CC1 [Vandetanib]
- Ka^c binding constant ([2]; HSA, 303 K): 7.63 × 10^3 M^–1
- ΔG^0 ([2]; HSA, 303 K): –22.56 kJ mol^–1
- ΔH^0 ([2]; HSA): –6.57 kJ mol^–1
- ΔS^0 ([2]; HSA): 52.76 J K^–1 mol^–1

Structure (SMILES): C[C@H](Cn1cnc2c(N)ncnc21)OCP(=O)(O)O [tenofovir]
- binding constant to HSA ([2]; 310 K): 5.7 × 10^4 M^–1
